In patent US11077139B2, “Combination of an arsenic compound and at least one retinoid for treating acute myeloid leukemia” (INSERM (Institut National de la Sante et de la Recherche …, priority 2013, dated 2021):

Columns and labels:
[1] = system: OCI-AML3 cells (mutated NPM-1); type: cell-based; conditions: addition of the proteasome inhibitor
Description: Cells were seeded at a density of 2×10^5/ml. Primary AML cells (from either peripheral blood or BM) were extracted following ficoll separation and cultured in MEM-α supplemented with 20% FBS and antibiotics. […] Cell growth was assessed using the CellTiter 96® cell proliferation assay kit (Promega Corp., Madison, Wis., USA) or by trypan blue dye assay.
Proliferation experiments on cell lines were repeated at least three times. Data are reported as the mean+/−standard error. […] CI was used to assess synergistic effects (CI<1), additive effects (CI=1) or antagonistic effects (CI>1). Two statistical tests were performed to validate significance: the t-test and the one-way analysis of variance (ANOVA) test. *, ** and *** indicate p values≤0.05; 0.01 and 0.001, respectively. p-values less than 0.05 were considered significant.

[2] = system: mutant NPM-1; assay: Western blot for NPM-1 and mutated NPM-1; type: cell-based
Description: Cells were solubilized at 4° C. in lysis buffer. […] Blots were incubated with specific antibodies, washed and proteins were visualized using the ECL chemiluminescence system (Santa Cruz, Germany). The following antibodies were used; monoclonal anti-wt NPM-1 (Abnova, Abcam), polyclonal anti-mutated NPM-1 (Abnova), anti-actin (Santa-cruz, Germany) and anti-GAPDH (Abnova).

Compound	effect on RA/arsenic-induced growth arrest [1]	effect on RA/arsenic-induced NPM-1 degradation ([2]; addition of the proteasome inhibitor)	effect of pre-treatment on arsenic-induced degradation of mutant NPM-1 ([2]; data not shown)
CC(C)C[C@H](NC(=O)[C@H](Cc1ccccc1)NC(=O)c1cnccn1)B(O)O [PS-341]	reversed	reversed	–
interferon alpha	–	–	significantly accelerated
